Experimental data published in the Kinase Knowledgebase extract (Sharma et al. 2016).

What follows are compounds tested against CDK2 (human) (UniProt P24941) (assay: Enzyme Assay).

Compound	Ki
CC(=O)Nc1cccc(-c2cc(Nc3cc(C)[nH]n3)nc(Sc3ccc4c(=O)[nH][nH]c4c3)n2)c1	< 1000 nM
Cn1cnc(NCCC(=O)Nc2ccc3c(=O)[nH][nH]c3c2)c1	< 1000 nM
Cc1cc(Nc2cc(-c3ccco3)[nH]n2)nc(COc2ccc3[nH][nH]c(=O)c3c2)n1	< 1000 nM
Cn1cnc(NCCC(Cc2ccccc2)Oc2ccc3c(=O)[nH][nH]c3c2)c1 (centres undefined)	< 1000 nM
Cc1cc(Nc2nc(-c3ccc4[nH][nH]c(=O)c4c3)nc3cc(-n4cccc4)ccc23)n[nH]1	< 1000 nM
Cn1cnc(NCCCCc2ccc3c(=O)[nH][nH]c3c2)c1	< 1000 nM
O=c1[nH][nH]c2cc(COCc3nc(Nc4cc(C5CC5)[nH]n4)c4ccccc4n3)ccc12	< 1000 nM
Cc1cc(Nc2nc(Nc3ccc4c(=O)[nH][nH]c4c3)nc3c2CN(Cc2ccccc2)CC3)n[nH]1	< 1000 nM
Cc1cc(Nc2cc(Nc3ccc4c(=O)[nH][nH]c4c3)nc3ccccc23)n[nH]1	< 1000 nM
CSc1n[nH]c(Nc2nc(Nc3ccc4c(=O)[nH][nH]c4c3)ccc2[N+](=O)[O-])n1	< 1000 nM
CC(C)c1cc(Nc2nc(Nc3ccc4c(=O)[nH][nH]c4c3)nc3ccccc23)n[nH]1	< 1000 nM
NCCOc1cc(Nc2n[nH]c3ccccc23)nc(-c2cc3c(=O)[nH][nH]c3cc2C(F)(F)F)c1	< 1000 nM
O=c1[nH][nH]c2cc(SC(CCNc3ccccn3)Cc3ccccc3)ccc12 (centres undefined)	< 1000 nM
O=c1[nH][nH]c2cc(SCC3CCCC3Nc3nccnn3)ccc12 (centres undefined)	< 1000 nM
Cc1cc(Nc2nc(CCc3ccc4[nH][nH]c(=O)c4c3)nc3c2CCCC3)n[nH]1	< 1000 nM
Cc1cc(Nc2cc(Sc3ccc4c(=O)[nH][nH]c4c3)nc3ccccc23)n[nH]1	< 1000 nM

Compound	Ki
Cn1cnc(NCCCOc2ccc3c(=O)[nH][nH]c3c2)c1	< 1000 nM
O=c1[nH][nH]c2ccc(C3CCC(Nc4cc(C5CC5)[nH]n4)C3)cc12 (centres undefined)	< 1000 nM
O=c1[nH][nH]c2cc(Nc3cccc(Nc4cc(C5CC5)[nH]n4)c3)ccc12	< 1000 nM
O=c1[nH][nH]c2cc(Nc3nc(Nc4cc(C5CCC5)[nH]n4)c4ccccc4n3)ccc12	< 1000 nM
O=c1[nH][nH]c2cc(C(F)(F)F)c(-c3nc(Nc4cc(C5CC5)[nH]n4)nc(-c4ccncc4)n3)cc12	< 1000 nM
O=c1[nH][nH]c2cc(CCC3CCCC3Nc3nccnn3)ccc12 (centres undefined)	< 1000 nM
O=c1[nH][nH]c2cc(Nc3ncc(-c4cccs4)c(Nc4cc(C5CC5)[nH]n4)n3)ccc12	< 1000 nM
Cc1cc(Nc2nc(Sc3ccc4c(=O)[nH][nH]c4c3)nc3cc(N)ccc23)n[nH]1	< 1000 nM
O=c1[nH][nH]c2cc(SC3COCC(Nc4nccnn4)C3)ccc12 (centres undefined)	< 1000 nM
O=c1[nH][nH]c2ccc(CNc3nc(Nc4cc(C5CC5)[nH]n4)cc(-c4ccccc4)n3)cc12	< 1000 nM
Cc1cc(Nc2nc(Sc3ccc4c(=O)[nH][nH]c4c3)nc3cc(O)ccc23)n[nH]1	< 1000 nM
Cc1cc(Nc2nc(Oc3ccc4c(=O)[nH][nH]c4c3)nc3ccccc23)n[nH]1	< 1000 nM
O=c1[nH][nH]c2cc(Nc3nc(Nc4cc(C5CC5)[nH]n4)c4cc(N5CCOCC5)ccc4n3)ccc12	< 1000 nM
Cc1cnc(NC2CCCC(c3ccc4[nH][nH]c(=O)c4c3)C2)s1 (centres undefined)	< 1000 nM
O=c1[nH][nH]c2cc(CC3CCCC(Nc4cc(C5CC5)[nH]n4)C3)ccc12 (centres undefined)	< 1000 nM

More lines, now with the values ahead:

Ki	Compound
< 1000 nM	O=c1[nH][nH]c2cc(NCCONc3nccnn3)ccc12
< 1000 nM	O=c1[nH][nH]c2ccc(-c3nc4c(c(Nc5n[nH]c6c(F)cc(F)cc56)n3)CCCC4)c(C(F)(F)F)c12
< 1000 nM	O=c1[nH][nH]c2cc(Sc3cc(Nc4cc(C5CC5)[nH]n4)c4ccccc4n3)ccc12
< 1000 nM	O=c1[nH][nH]c2cc(Nc3nc(Nc4ccc5c(=O)[nH][nH]c5c4)c4ccccc4n3)ccc12
< 1000 nM	O=C(CCNc1ccc2c(=O)[nH][nH]c2c1)Nc1cc(C2CC2)[nH]n1
< 1000 nM	COc1ccc2c(Nc3cc(C)[nH]n3)nc(Sc3ccc4c(=O)[nH][nH]c4c3)nc2c1
< 1000 nM	Cc1cc(Nc2nc(-c3cc4c(=O)[nH][nH]c4cc3-c3ccccc3)nc3ccccc23)n[nH]1
< 1000 nM	Cn1cnc(NC2COCC(Nc3ccc4c(=O)[nH][nH]c4c3)C2)c1 (centres undefined)
< 1000 nM	Cn1cnc(NCCC(Cc2ccccc2)Cc2ccc3c(=O)[nH][nH]c3c2)c1 (centres undefined)
< 1000 nM	Cc1cc(Nc2nc(COc3ccc4[nH][nH]c(=O)c4c3)nc3c2CCCCC3)n[nH]1
< 1000 nM	O=c1[nH][nH]c2cc(OC3CCCC(Nc4ccccn4)C3)ccc12 (centres undefined)
< 1000 nM	O=c1[nH][nH]c2cc(SCCONc3cc(C4CC4)[nH]n3)ccc12
< 1000 nM	O=c1[nH][nH]c2cc(C(F)(F)F)c(-c3cc(Nc4n[nH]c5ccccc45)cc(-c4ccccc4)n3)cc12
< 1000 nM	Cn1cnc(NC(CCOc2ccc3c(=O)[nH][nH]c3c2)c2ccccc2)c1 (centres undefined)
< 1000 nM	O=c1[nH][nH]c2cc(OCC3CCCC3Nc3nccnn3)ccc12 (centres undefined)
< 1000 nM	O=c1[nH][nH]c2cc(CSc3cc(Nc4n[nH]c5ccccc45)ccn3)ccc12
< 1000 nM	O=c1[nH][nH]c2cc(SC3CCC(Nc4cc(C5CC5)[nH]n4)C3)ccc12 (centres undefined)
< 1000 nM	COc1c(-c2nc(Nc3cc(C)[nH]n3)c3ccccc3n2)ccc2[nH][nH]c(=O)c12
< 1000 nM	O=c1[nH][nH]c2cc(Nc3nc(Nc4cc(C5CC5)[nH]n4)ccc3[N+](=O)[O-])ccc12

Ki	Compound
< 1000 nM	CN1CCN(c2cc(Nc3cc(C4CC4)[nH]n3)nc(Sc3ccc4c(=O)[nH][nH]c4c3)n2)CC1
< 1000 nM	CCc1cc(Nc2cc(C)[nH]n2)nc(-c2ccc3[nH][nH]c(=O)c3c2)n1
< 1000 nM	Cc1cc(Nc2nc(C3(c4ccc5c(=O)[nH][nH]c5c4)CC3)nc3ccccc23)n[nH]1
< 1000 nM	Cc1cc(Nc2cnnc(-c3ccc4[nH][nH]c(=O)c4c3)c2)n[nH]1
< 1000 nM	O=c1[nH][nH]c2cc(NC3CCCC(Nc4nccnn4)C3)ccc12 (centres undefined)
< 1000 nM	O=c1[nH][nH]c2cc(Sc3cc4ccccc4c(Nc4cc(C5CC5)[nH]n4)n3)ccc12
< 1000 nM	COCc1cc(Nc2cc(C)[nH]n2)nc(Nc2ccc3c(=O)[nH][nH]c3c2)n1
< 1000 nM	O=c1[nH][nH]c2cc(Sc3cc4ccccc4c(Nc4n[nH]c5ccccc45)n3)ccc12
< 1000 nM	O=c1[nH][nH]c2cc(Oc3nc(Nc4cc(C5CC5)[nH]n4)cc(N4CCOCC4)n3)ccc12
< 1000 nM	Cc1cc(Nc2cc(COc3ccc4c(=O)[nH][nH]c4c3)nc3c2CCCC3)n[nH]1
< 1000 nM	CN1CCN(C(=O)c2cc(Nc3nc(-c4ccc5[nH][nH]c(=O)c5c4)nc4ccccc34)n[nH]2)CC1
< 1000 nM	O=c1[nH][nH]c2ccc(CNc3cc(Nc4cc(C5CC5)[nH]n4)ccn3)cc12
< 1000 nM	Cc1cc(Nc2nc(Nc3ccc4c(=O)[nH][nH]c4c3)nc(C)c2C)n[nH]1
< 1000 nM	CS(=O)(=O)N1CCCCC1c1cc(Nc2n[nH]c3ccccc23)nc(-c2ccc3[nH][nH]c(=O)c3c2C(F)(F)F)n1 (centres undefined)
< 1000 nM	Cc1cnc(NCCC(=O)Nc2ccc3c(=O)[nH][nH]c3c2)s1
< 1000 nM	O=c1[nH][nH]c2cc(SCCONc3nccnn3)ccc12
< 1000 nM	O=c1[nH][nH]c2cc(OCCC(Nc3cc(C4CC4)[nH]n3)c3ccccc3)ccc12 (centres undefined)
< 1000 nM	O=c1[nH][nH]c2ccc(-c3nc(Nc4n[nH]c(C5CC5)n4)c4ccncc4n3)c(Cl)c12
< 1000 nM	O=c1[nH][nH]c2cc(Sc3nc(Nc4cc(C5CC5)[nH]n4)c4cccc(F)c4n3)ccc12
